Source: paper PMC11079024, “Identification of a family of species-selective complex I inhibitors as potential anthelmintics” (Nature Communications, 2024)
Several values for one entry are separate records, joined by “and”; a condition that tells them apart may be missing. Equal entries are not always repeated. Where two headings read alike, the source gives them in different places.

Legend:
[1] = biological target: B. taurus (heart) complex I (Bos taurus, UniProt P03887+P17694+P42026); assay: biochemical; assay type: biochemical
How it was run: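 Complex I activity followed as DCIP reduction (600 nm, 30 s reads, 15 min) with 80 μM NADH and 60 μM decylubiquinone in 25 mM KPi pH 7.5 containing 2 μM antimycin A and 2 mM KCN. Freeze-thawed mouse or bovine heart mitochondria at 0.2 mg/mL; initial-rate percent of solvent control, single-point 100 μM or dose-response.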

[2] = biological target: C. elegans (N2) complex I (NADH:ubiquinone oxidoreductase) (Caenorhabditis elegans, UniProt P24887+Q93873+Q94360); assay: biochemical; assay type: biochemical; conditions: wild-type C. elegans mitochondria, read-out: percent (%) in vitro complex I activity relative to solvent control
How it was run: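 Compounds were tested against freeze-thawed isolated mitochondria (0.2 mg/mL protein). NADH:decylubiquinone activity was monitored via DCIP absorbance at 600 nm, and the initial linear slope was normalised to solvent controls.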

Sequence of C. elegans (N2) complex I (NADH:ubiquinone oxidoreductase) (Q94360 17-199): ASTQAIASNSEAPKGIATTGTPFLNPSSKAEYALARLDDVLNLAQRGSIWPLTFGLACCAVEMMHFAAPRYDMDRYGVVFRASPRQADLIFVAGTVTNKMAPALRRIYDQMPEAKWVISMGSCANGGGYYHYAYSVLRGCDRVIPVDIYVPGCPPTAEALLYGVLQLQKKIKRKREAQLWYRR
Sequence of C. elegans (N2) complex I (NADH:ubiquinone oxidoreductase) (P24887 whole entry): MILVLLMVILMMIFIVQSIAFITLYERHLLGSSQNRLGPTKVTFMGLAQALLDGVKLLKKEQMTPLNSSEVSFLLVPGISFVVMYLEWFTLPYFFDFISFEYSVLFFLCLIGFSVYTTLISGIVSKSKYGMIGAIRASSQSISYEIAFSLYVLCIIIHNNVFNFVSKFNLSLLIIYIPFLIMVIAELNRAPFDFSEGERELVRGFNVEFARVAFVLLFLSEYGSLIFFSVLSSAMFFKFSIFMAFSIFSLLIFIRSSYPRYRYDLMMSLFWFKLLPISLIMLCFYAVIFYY
Sequence of C. elegans (N2) complex I (NADH:ubiquinone oxidoreductase) (Q93873 31-482): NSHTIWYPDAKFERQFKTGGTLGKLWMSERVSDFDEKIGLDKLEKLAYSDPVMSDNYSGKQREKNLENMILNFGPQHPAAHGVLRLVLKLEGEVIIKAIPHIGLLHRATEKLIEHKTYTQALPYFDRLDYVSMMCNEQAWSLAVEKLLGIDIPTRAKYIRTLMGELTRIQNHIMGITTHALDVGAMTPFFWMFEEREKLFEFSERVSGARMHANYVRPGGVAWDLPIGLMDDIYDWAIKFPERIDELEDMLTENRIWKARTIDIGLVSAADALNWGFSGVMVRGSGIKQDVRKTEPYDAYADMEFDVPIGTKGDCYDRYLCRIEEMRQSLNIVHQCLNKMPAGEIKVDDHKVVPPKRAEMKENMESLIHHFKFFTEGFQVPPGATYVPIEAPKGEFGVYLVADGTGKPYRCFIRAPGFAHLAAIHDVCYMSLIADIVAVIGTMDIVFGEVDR
Sequence of B. taurus (heart) complex I (P03887 whole entry): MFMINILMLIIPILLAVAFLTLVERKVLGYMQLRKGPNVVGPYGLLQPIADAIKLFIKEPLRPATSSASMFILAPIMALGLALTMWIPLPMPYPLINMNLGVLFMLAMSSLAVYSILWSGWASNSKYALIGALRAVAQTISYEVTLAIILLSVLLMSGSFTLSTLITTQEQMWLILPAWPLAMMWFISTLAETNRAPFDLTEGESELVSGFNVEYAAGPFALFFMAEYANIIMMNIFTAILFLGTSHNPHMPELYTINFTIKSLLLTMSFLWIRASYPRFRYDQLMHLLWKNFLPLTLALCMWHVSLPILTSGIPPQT
Sequence of B. taurus (heart) complex I (P17694 34-463): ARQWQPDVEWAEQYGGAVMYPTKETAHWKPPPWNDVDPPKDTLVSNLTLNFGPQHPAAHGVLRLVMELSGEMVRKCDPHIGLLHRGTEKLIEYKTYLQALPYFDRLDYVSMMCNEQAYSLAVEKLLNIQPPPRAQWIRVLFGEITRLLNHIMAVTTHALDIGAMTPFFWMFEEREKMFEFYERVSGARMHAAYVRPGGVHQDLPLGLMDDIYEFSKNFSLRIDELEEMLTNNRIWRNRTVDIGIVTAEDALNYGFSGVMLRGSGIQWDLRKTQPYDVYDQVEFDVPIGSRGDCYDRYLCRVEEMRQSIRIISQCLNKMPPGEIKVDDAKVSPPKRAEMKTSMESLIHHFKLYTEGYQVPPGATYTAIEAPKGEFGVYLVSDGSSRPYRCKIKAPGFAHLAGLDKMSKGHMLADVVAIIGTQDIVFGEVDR
Sequence of B. taurus (heart) complex I (P42026 38-216): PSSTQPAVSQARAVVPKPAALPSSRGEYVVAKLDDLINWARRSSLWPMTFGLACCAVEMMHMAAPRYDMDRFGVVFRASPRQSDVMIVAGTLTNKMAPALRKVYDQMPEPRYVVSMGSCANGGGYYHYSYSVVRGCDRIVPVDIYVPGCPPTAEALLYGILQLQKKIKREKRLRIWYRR

COc1cc2c(cc1OC)C(/C=C/c1ccc(N(C)C)cc1)=NCC2 [NPD6303]
activity at 0.0001 µM ([1]; B. taurus, dose 0.0001 µM, Mean of replicates, read-out: Complex I activity, dose-response data): 91.7% | Complex I activity, dose-response data ([1]; B. taurus, dose 0.0001 µM, individual replicates (Rep)): 93.903 and 88.856 and 86.554 | activity at 0.0001 µM ([1]; B. taurus, dose 0.0001 µM, individual replicates (Rep), read-out: Complex I activity, dose-response data): 97.5% | activity at 0.0005 µM ([1]; B. taurus, dose 0.0005 µM, Mean of replicates, read-out: Complex I activity, dose-response data): 92.3% | Complex I activity, dose-response data ([1]; B. taurus, dose 0.0005 µM, individual replicates (Rep)): 92.515 and 88.363 and 93.860 | activity at 0.0005 µM ([1]; B. taurus, dose 0.0005 µM, individual replicates (Rep), read-out: Complex I activity, dose-response data): 94.5% | activity at 0.001 µM ([1]; B. taurus, dose 0.001 µM, Mean of replicates, read-out: Complex I activity, dose-response data): 92% | Complex I activity, dose-response data ([1]; B. taurus, dose 0.001 µM, individual replicates (Rep)): 95.392 and 88.341 and 90.155 | activity at 0.001 µM ([1]; B. taurus, dose 0.001 µM, individual replicates (Rep), read-out: Complex I activity, dose-response data): 93.9% | activity at 0.0025 µM ([1]; B. taurus, dose 0.0025 µM, Mean of replicates, read-out: Complex I activity, dose-response data): 91.7% | Complex I activity, dose-response data ([1]; B. taurus, dose 0.0025 µM, individual replicates (Rep)): 92.736 and 89.606 and 94.534 | activity at 0.0025 µM ([1]; B. taurus, dose 0.0025 µM, individual replicates (Rep), read-out: Complex I activity, dose-response data): 89.8% | activity at 0.005 µM ([1]; B. taurus, dose 0.005 µM, Mean of replicates, read-out: Complex I activity, dose-response data): 93.7% | Complex I activity, dose-response data ([1]; B. taurus, dose 0.005 µM, individual replicates (Rep)): 98.592 and 81.676 and 99.845 | activity at 0.005 µM ([1]; B. taurus, dose 0.005 µM, individual replicates (Rep), read-out: Complex I activity, dose-response data): 94.8% | activity at 0.013 µM ([1]; B. taurus, dose 0.013 µM, Mean of replicates, read-out: Complex I activity, dose-response data): 94.7% | Complex I activity, dose-response data ([1]; B. taurus, dose 0.013 µM, individual replicates (Rep)): 95.041 and 103.924 and 78.354 and 101.425 | activity at 0.025 µM ([1]; B. taurus, dose 0.025 µM, Mean of replicates, read-out: Complex I activity, dose-response data): 91.5% | Complex I activity, dose-response data ([1]; B. taurus, dose 0.025 µM, individual replicates (Rep)): 93.260 and 100.684 and 76.425 and 95.829 | activity at 0.063 µM ([1]; B. taurus, dose 0.063 µM, Mean of replicates, read-out: Complex I activity, dose-response data): 90.4% | Complex I activity, dose-response data ([1]; B. taurus, dose 0.063 µM, individual replicates (Rep)): 90.670 and 95.493 and 75.718 and 99.663 | activity at 0.125 µM ([1]; B. taurus, dose 0.125 µM, Mean of replicates, read-out: Complex I activity, dose-response data): 88.5% | Complex I activity, dose-response data ([1]; B. taurus, dose 0.125 µM, individual replicates (Rep)): 91.682 and 93.823 and 68.860 and 99.585 | activity at 0.313 µM ([1]; B. taurus, dose 0.313 µM, Mean of replicates, read-out: Complex I activity, dose-response data): 88.2% | Complex I activity, dose-response data ([1]; B. taurus, dose 0.313 µM, individual replicates (Rep)): 96.036 and 78.933 and 86.373 | activity at 0.313 µM ([1]; B. taurus, dose 0.313 µM, individual replicates (Rep), read-out: Complex I activity, dose-response data): 91.3% | activity at 0.625 µM ([1]; B. taurus, dose 0.625 µM, Mean of replicates, read-out: Complex I activity, dose-response data): 97.3% | Complex I activity, dose-response data ([1]; B. taurus, dose 0.625 µM, individual replicates (Rep)): 107.704 and 91.974 and 95.636 | activity at 0.625 µM ([1]; B. taurus, dose 0.625 µM, individual replicates (Rep), read-out: Complex I activity, dose-response data): 93.9% | activity at 1.5 µM ([1]; B. taurus, dose 1.5 µM, Mean of replicates, read-out: Complex I activity, dose-response data): 93.1% | Complex I activity, dose-response data ([1]; B. taurus, dose 1.5 µM, individual replicates (Rep)): 104.204 and 86.663 and 89.601 | activity at 1.5 µM ([1]; B. taurus, dose 1.5 µM, individual replicates (Rep), read-out: Complex I activity, dose-response data): 92.1% | activity at 3 µM ([1]; B. taurus, dose 3 µM, Mean of replicates, read-out: Complex I activity, dose-response data): 91.2% | Complex I activity, dose-response data ([1]; B. taurus, dose 3 µM, individual replicates (Rep)): 87.892 and 104.226 and 89.807 and 82.898 | activity at 15 µM ([1]; B. taurus, dose 15 µM, Mean of replicates, read-out: Complex I activity, dose-response data): 76.4% | Complex I activity, dose-response data ([1]; B. taurus, dose 15 µM, individual replicates (Rep)): 86.661 and 69.921 and 66.695 | activity at 15 µM ([1]; B. taurus, dose 15 µM, individual replicates (Rep), read-out: Complex I activity, dose-response data): 82.4% | activity at 37.5 µM ([1]; B. taurus, dose 37.5 µM, Mean of replicates, read-out: Complex I activity, dose-response data): 51.7% | Complex I activity, dose-response data ([1]; B. taurus, dose 37.5 µM, individual replicates (Rep)): 53.115 and 63.240 and 41.319 and 49.280 | activity at 75 µM ([1]; B. taurus, dose 75 µM, Mean of replicates, read-out: Complex I activity, dose-response data): 29.9% | Complex I activity, dose-response data ([1]; B. taurus, dose 75 µM, individual replicates (Rep)): 35.395 and 24.387 and 27.438 | activity at 75 µM ([1]; B. taurus, dose 75 µM, individual replicates (Rep), read-out: Complex I activity, dose-response data): 32.4% | IC50 ([1]; heart mitochondria, read-out: B. taurus Complex I IC50): 34.3 µM | remaining activity at 0.125 µM ([2]; mean of replicates): 93.1% | remaining activity at 0.125 µM ([2]; single replicate): 103% | remaining activity at 0.313 µM ([2]; mean of replicates): 88% | remaining activity at 0.313 µM ([2]; single replicate): 83.6% | remaining activity at 0.625 µM ([2]; mean of replicates): 108% | remaining activity at 0.625 µM ([2]; single replicate): 106% | remaining activity at 1.5 µM ([2]; mean of replicates): 100% | remaining activity at 1.5 µM ([2]; single replicate): 100% | remaining activity at 3 µM ([2]; 3 µM, mean of replicates): 89.5%
